{"source": "PubChem BioAssay (NCI)", "experiment_in_all_cases": "inhibition of tumour cell growth, NCI panel, 48 h", "key": {"TK-10 renal": {"system": "TK-10 renal"}, "BT-549 breast": {"system": "BT-549 breast"}, "HOP-62 NSCLC": {"system": "HOP-62 NSCLC"}, "NCI-H460 lung": {"system": "NCI-H460 lung"}, "COLO 205 colon": {"system": "COLO 205 colon"}, "SF-295 CNS": {"system": "SF-295 CNS"}, "K-562 leukemia": {"system": "K-562 leukemia"}, "HCT-15 colon": {"system": "HCT-15 colon"}, "UACC-62 melanoma": {"system": "UACC-62 melanoma"}, "OVCAR-4 ovarian": {"system": "OVCAR-4 ovarian"}, "SF-268 CNS": {"system": "SF-268 CNS"}, "ACHN renal": {"system": "ACHN renal"}, "HCT-116 colon": {"system": "HCT-116 colon"}, "HL-60(TB) leukemia": {"system": "HL-60(TB) leukemia"}, "OVCAR-3 ovarian": {"system": "OVCAR-3 ovarian"}, "CAKI-1 renal": {"system": "CAKI-1 renal"}, "MDA-N": {"system": "MDA-N"}, "NCI-H23 lung": {"system": "NCI-H23 lung"}, "SF-539 CNS": {"system": "SF-539 CNS"}, "MDA-MB-435": {"system": "MDA-MB-435"}, "SK-MEL-2 melanoma": {"system": "SK-MEL-2 melanoma"}, "SK-OV-3 ovarian": {"system": "SK-OV-3 ovarian"}, "UO-31 renal": {"system": "UO-31 renal"}, "SNB-75 CNS": {"system": "SNB-75 CNS"}, "A549 NSCLC": {"system": "A549 NSCLC"}, "RXF 393 renal": {"system": "RXF 393 renal"}, "HS 578T breast": {"system": "HS 578T breast"}, "NCI-H226 lung": {"system": "NCI-H226 lung"}, "PC-3 prostate": {"system": "PC-3 prostate"}, "MOLT-4 leukemia": {"system": "MOLT-4 leukemia"}, "KM12 colon": {"system": "KM12 colon"}, "LOX IMVI melanoma": {"system": "LOX IMVI melanoma"}, "RPMI-8226 leukemia": {"system": "RPMI-8226 leukemia"}, "SR leukemia": {"system": "SR leukemia"}, "MALME-3M melanoma": {"system": "MALME-3M melanoma"}, "NCI/ADR-RES ovarian": {"system": "NCI/ADR-RES ovarian"}, "NCI-H522 lung": {"system": "NCI-H522 lung"}, "T-47D breast": {"system": "T-47D breast"}, "OVCAR-5 ovarian": {"system": "OVCAR-5 ovarian"}, "IGROV1 ovarian": {"system": "IGROV1 ovarian"}, "MCF7 breast": {"system": "MCF7 breast"}, "CCRF-CEM leukemia": {"system": "CCRF-CEM leukemia"}, "OVCAR-8 ovarian": {"system": "OVCAR-8 ovarian"}, "EKVX NSCLC": {"system": "EKVX NSCLC"}, "HT29 colon": {"system": "HT29 colon"}, "MDA-MB-231 breast": {"system": "MDA-MB-231 breast"}, "M14 melanoma": {"system": "M14 melanoma"}, "HCC-2998 colon": {"system": "HCC-2998 colon"}, "SN12C renal": {"system": "SN12C renal"}, "U251 CNS": {"system": "U251 CNS"}, "A498 renal": {"system": "A498 renal"}, "SK-MEL-5 melanoma": {"system": "SK-MEL-5 melanoma"}, "786-0 renal": {"system": "786-0 renal"}, "SW-620 colon": {"system": "SW-620 colon"}, "SNB-19 CNS": {"system": "SNB-19 CNS"}, "SK-MEL-28 melanoma": {"system": "SK-MEL-28 melanoma"}}, "note": "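Dose response: 5 concentrations. Exposure: 48 h. Format: 96-well plates. Endpoint: linear interpolation; highest concentration if not reached. At the TGI there is no net growth.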"}
{"smiles": "O[C@H]1[C@H]2c3cc4c(cc3CN3CCC(=C[C@@H]1O)[C@H]23)OCO4", "values": [{"measurement": "TGI", "setting": "TK-10 renal", "result": 11.9, "unit": "µM"}, {"measurement": "TGI", "setting": "BT-549 breast", "result": 5.43, "unit": "µM"}, {"measurement": "TGI", "setting": "HOP-62 NSCLC", "result": "> 27.4", "unit": "µM"}, {"measurement": "TGI", "setting": "NCI-H460 lung", "result": 5.88, "unit": "µM"}, {"measurement": "TGI", "setting": "COLO 205 colon", "result": 2.79, "unit": "µM"}, {"measurement": "TGI", "setting": "SF-295 CNS", "result": "> 68.8", "unit": "µM"}, {"measurement": "TGI", "setting": "K-562 leukemia", "result": 12, "unit": "µM"}, {"measurement": "TGI", "setting": "HCT-15 colon", "result": 5.32, "unit": "µM"}, {"measurement": "TGI", "setting": "UACC-62 melanoma", "result": 7.95, "unit": "µM"}, {"measurement": "TGI", "setting": "OVCAR-4 ovarian", "result": 8.4, "unit": "µM"}, {"measurement": "TGI", "setting": "SF-268 CNS", "result": 3.57, "unit": "µM"}, {"measurement": "TGI", "setting": "ACHN renal", "result": 7.07, "unit": "µM"}, {"measurement": "TGI", "setting": "HCT-116 colon", "result": "> 100", "unit": "µM"}, {"measurement": "TGI", "setting": "HL-60(TB) leukemia", "result": 6.37, "unit": "µM"}, {"measurement": "TGI", "setting": "OVCAR-3 ovarian", "result": 11.9, "unit": "µM"}, {"measurement": "TGI", "setting": "CAKI-1 renal", "result": 4.34, "unit": "µM"}, {"measurement": "TGI", "setting": "MDA-N", "result": 26.7, "unit": "µM"}, {"measurement": "TGI", "setting": "NCI-H23 lung", "result": 13.7, "unit": "µM"}, {"measurement": "TGI", "setting": "SF-539 CNS", "result": 5.74, "unit": "µM"}, {"measurement": "TGI", "setting": "MDA-MB-435", "result": 7.87, "unit": "µM"}, {"measurement": "TGI", "setting": "SK-MEL-2 melanoma", "result": 2.12, "unit": "µM"}, {"measurement": "TGI", "setting": "SK-OV-3 ovarian", "result": 20.5, "unit": "µM"}, {"measurement": "TGI", "setting": "UO-31 renal", "result": 4.77, "unit": "µM"}, {"measurement": "TGI", "setting": "SNB-75 CNS", "result": 24.9, "unit": "µM"}, {"measurement": "TGI", "setting": "A549 NSCLC", "result": 13.1, "unit": "µM"}, {"measurement": "TGI", "setting": "RXF 393 renal", "result": 2.6, "unit": "µM"}, {"measurement": "TGI", "setting": "HS 578T breast", "result": "> 28.4", "unit": "µM"}, {"measurement": "TGI", "setting": "NCI-H226 lung", "result": 29.6, "unit": "µM"}, {"measurement": "TGI", "setting": "PC-3 prostate", "result": 5.34, "unit": "µM"}, {"measurement": "TGI", "setting": "MOLT-4 leukemia", "result": 4.65, "unit": "µM"}, {"measurement": "TGI", "setting": "KM12 colon", "result": 22.4, "unit": "µM"}, {"measurement": "TGI", "setting": "LOX IMVI melanoma", "result": 5.06, "unit": "µM"}, {"measurement": "TGI", "setting": "RPMI-8226 leukemia", "result": 5.03, "unit": "µM"}, {"measurement": "TGI", "setting": "SR leukemia", "result": 4.24, "unit": "µM"}, {"measurement": "TGI", "setting": "MALME-3M melanoma", "result": 10.7, "unit": "µM"}, {"measurement": "TGI", "setting": "NCI/ADR-RES ovarian", "result": 10.7, "unit": "µM"}, {"measurement": "TGI", "setting": "NCI-H522 lung", "result": 3.07, "unit": "µM"}, {"measurement": "TGI", "setting": "T-47D breast", "result": "> 21.3", "unit": "µM"}, {"measurement": "TGI", "setting": "OVCAR-5 ovarian", "result": 22, "unit": "µM"}, {"measurement": "TGI", "setting": "IGROV1 ovarian", "result": 0.874, "unit": "µM"}, {"measurement": "TGI", "setting": "MCF7 breast", "result": 1.71, "unit": "µM"}, {"measurement": "TGI", "setting": "CCRF-CEM leukemia", "result": 7.51, "unit": "µM"}, {"measurement": "TGI", "setting": "OVCAR-8 ovarian", "result": 7.55, "unit": "µM"}, {"measurement": "TGI", "setting": "EKVX NSCLC", "result": 10.8, "unit": "µM"}, {"measurement": "TGI", "setting": "HT29 colon", "result": 30.6, "unit": "µM"}, {"measurement": "TGI", "setting": "MDA-MB-231 breast", "result": 10.2, "unit": "µM"}, {"measurement": "TGI", "setting": "M14 melanoma", "result": 8.2, "unit": "µM"}, {"measurement": "TGI", "setting": "HCC-2998 colon", "result": 8.84, "unit": "µM"}, {"measurement": "TGI", "setting": "SN12C renal", "result": 9.5, "unit": "µM"}, {"measurement": "TGI", "setting": "U251 CNS", "result": "> 26.7", "unit": "µM"}, {"measurement": "TGI", "setting": "A498 renal", "result": 12.8, "unit": "µM"}, {"measurement": "TGI", "setting": "SK-MEL-5 melanoma", "result": 6.91, "unit": "µM"}, {"measurement": "TGI", "setting": "786-0 renal", "result": "> 34", "unit": "µM"}, {"measurement": "TGI", "setting": "SW-620 colon", "result": "> 36.9", "unit": "µM"}, {"measurement": "TGI", "setting": "SNB-19 CNS", "result": 14.9, "unit": "µM"}, {"measurement": "TGI", "setting": "SK-MEL-28 melanoma", "result": 22.6, "unit": "µM"}]}
